Data as given in ChEMBL document CHEMBL5729144, “1-cyano-pyrrolidine derivatives as DUB inhibitors” (2022).

The compounds below were run against T1, Ubiquitin carboxyl-terminal hydrolase 30 (Homo sapiens, UniProt Q70CQ3) (assay: A typical 8-point dilution series would be 100, 30, 10, 3, 1, 0.3, 0.1, 0.03 μM final. Reactions were performed in duplicate in black 384 well plates (small volume, Greiner 784076) in a final reaction volume of 21 μl. Either 1 μl of 50% DMSO or diluted compound was added to the plate. USP30 was diluted in reaction buffer (40 mM Tris, pH 7.5, 0.005% Tween 20, 0.5 mg/ml BSA, 5 mM beta-mercaptoethanol) to the equivalent of 0.05 μl/well and 10 μl of diluted USP30 was added to the compound. Enzyme and compound were incubated for 30 min at room temp. Reactions were initiated by the addition of 50 nM of TAMRA labelled peptide linked to ubiquitin via an iso-peptide bond as fluorescence polarisation substrate. Reactions were read immediately after addition of substrate and following a 2 h incubation at room temperature. Readings were performed on a Pherastar Plus (BMG Labtech). λ Excitation 540 nm; λ Emission 590 nm.).
T1 sequence (Q70CQ3 whole entry): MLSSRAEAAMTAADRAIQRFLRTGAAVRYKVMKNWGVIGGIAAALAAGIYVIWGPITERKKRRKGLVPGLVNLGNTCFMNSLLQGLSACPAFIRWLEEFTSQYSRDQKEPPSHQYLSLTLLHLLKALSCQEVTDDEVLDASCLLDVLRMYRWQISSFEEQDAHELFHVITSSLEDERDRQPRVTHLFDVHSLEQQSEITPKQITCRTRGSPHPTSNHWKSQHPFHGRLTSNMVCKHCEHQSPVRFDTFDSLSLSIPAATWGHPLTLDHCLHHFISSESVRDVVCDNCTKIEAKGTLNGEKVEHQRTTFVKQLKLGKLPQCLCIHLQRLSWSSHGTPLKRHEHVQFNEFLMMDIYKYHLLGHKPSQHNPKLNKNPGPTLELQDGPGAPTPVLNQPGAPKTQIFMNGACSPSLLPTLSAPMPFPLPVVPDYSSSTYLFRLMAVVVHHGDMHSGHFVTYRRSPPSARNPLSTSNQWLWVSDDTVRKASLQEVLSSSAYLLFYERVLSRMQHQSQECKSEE

Structure (SMILES) | IC50
N#Cc1cccc(-c2cccc(-c3nc(C4CCCN4C#N)no3)c2)c1F (centres undefined) | < 100 nM
N#Cc1ccc(-c2cccc(-c3nc(C4CCCN4C#N)no3)c2)s1 (centres undefined) | < 100 nM
N#CN1CCCC1c1noc(-c2cccc(-c3cccc([N+](=O)[O-])c3)c2)n1 (centres undefined) | < 100 nM
N#Cc1cccc(-c2cc(-c3nc([C@@H]4CCCN4C#N)no3)ccn2)c1 | < 100 nM
